Reference: ChEMBL document CHEMBL2029316, “Linker-based hemisuccinate derivatives of artemisinin: synthesis and antimalarial assessment against multidrug-resistant Plasmodium yoelii nigeriensis in mice” (J Med Chem, 2012)
The source made the active and inactive calls. The rule behind the calls is not given here.

tested on: Plasmodium yoelii nigeriensis; experiment: Antimalarial activity against chloroquine-, mefloquine-, halofantrine-resistant Plasmodium yoelii nigeriensis blood stream schizonts infected in Swiss mouse assessed as suppression of parasitemia at 48 mg/kg, im administered once daily for 4 days relative to control; type: functional; conditions: route intramuscular

SMILES | Activity [%]
C[C@H]1[C@@H](OCCCO)O[C@@H]2O[C@@]3(C)CC[C@H]4[C@H](C)CC[C@@H]1[C@@]24OO3 | 100
C[C@H]1[C@@H](OCCCCCCOC(=O)CCC(=O)O)O[C@@H]2O[C@@]3(C)CC[C@H]4[C@H](C)CC[C@@H]1[C@@]24OO3 | 98.55
C[C@H]1[C@@H](OCCCOC(=O)CCC(=O)O)O[C@@H]2O[C@@]3(C)CC[C@H]4[C@H](C)CC[C@@H]1[C@@]24OO3 | 100
C[C@H]1[C@@H](OCCCCCCCCCCCCO)O[C@@H]2O[C@@]3(C)CC[C@H]4[C@H](C)CC[C@@H]1[C@@]24OO3 | 100
C[C@H]1[C@@H](OCCOCCOCCOCCO)O[C@@H]2O[C@@]3(C)CC[C@H]4[C@H](C)CC[C@@H]1[C@@]24OO3 | 100
C[C@H]1[C@@H](OCCOCCO)O[C@@H]2O[C@@]3(C)CC[C@H]4[C@H](C)CC[C@@H]1[C@@]24OO3 | 100

tested on: Plasmodium yoelii nigeriensis; experiment: Antimalarial activity against chloroquine-, mefloquine-, halofantrine-resistant Plasmodium yoelii nigeriensis blood stream schizonts infected in Swiss mouse assessed as suppression of parasitemia at 24 mg/kg, im administered once daily for 4 days relative to control; type: functional; conditions: route intramuscular

SMILES | Activity [%]
C[C@H]1[C@@H](OCCCO)O[C@@H]2O[C@@]3(C)CC[C@H]4[C@H](C)CC[C@@H]1[C@@]24OO3 | 100
C[C@H]1[C@@H](OCCCCCCCCCCCCO)O[C@@H]2O[C@@]3(C)CC[C@H]4[C@H](C)CC[C@@H]1[C@@]24OO3 | 100
C[C@H]1[C@@H](OCCOCCOCCOCCO)O[C@@H]2O[C@@]3(C)CC[C@H]4[C@H](C)CC[C@@H]1[C@@]24OO3 | 100
C[C@H]1[C@@H](OCCOCCO)O[C@@H]2O[C@@]3(C)CC[C@H]4[C@H](C)CC[C@@H]1[C@@]24OO3 | 100

tested on: Plasmodium yoelii nigeriensis; experiment: Antimalarial activity against chloroquine-, mefloquine-, halofantrine-resistant Plasmodium yoelii nigeriensis blood stream schizonts infected in Swiss mouse assessed as suppression of parasitemia at 12 mg/kg, im administered once daily for 4 days relative to control; type: functional; conditions: route intramuscular

SMILES | Activity [%]
C[C@H]1[C@@H](OCCCO)O[C@@H]2O[C@@]3(C)CC[C@H]4[C@H](C)CC[C@@H]1[C@@]24OO3 | 100
C[C@H]1[C@@H](OCCOCCOCCOCCO)O[C@@H]2O[C@@]3(C)CC[C@H]4[C@H](C)CC[C@@H]1[C@@]24OO3 | 100
C[C@H]1[C@@H](OCCOCCO)O[C@@H]2O[C@@]3(C)CC[C@H]4[C@H](C)CC[C@@H]1[C@@]24OO3 | 100

tested on: Plasmodium yoelii nigeriensis; experiment: Antimalarial activity against chloroquine-, mefloquine-, halofantrine-resistant Plasmodium yoelii nigeriensis blood stream schizonts infected in Swiss mouse assessed as suppression of parasitemia at 6 mg/kg, im administered once daily for 4 days relative to control; type: functional; conditions: route intramuscular

SMILES | Activity [%]
C[C@H]1[C@@H](OCCCO)O[C@@H]2O[C@@]3(C)CC[C@H]4[C@H](C)CC[C@@H]1[C@@]24OO3 | 100
C[C@H]1[C@@H](OCCOCCO)O[C@@H]2O[C@@]3(C)CC[C@H]4[C@H](C)CC[C@@H]1[C@@]24OO3 | 100

tested on: Plasmodium yoelii nigeriensis; experiment: Antimalarial activity against chloroquine-, mefloquine-, halofantrine-resistant Plasmodium yoelii nigeriensis blood stream schizonts infected in Swiss mouse assessed as suppression of parasitemia at 3 mg/kg, im administered once daily for 4 days relative to control; type: functional; conditions: route intramuscular

SMILES | Activity [%]
C[C@H]1[C@@H](OCCCO)O[C@@H]2O[C@@]3(C)CC[C@H]4[C@H](C)CC[C@@H]1[C@@]24OO3 | 98.3

tested on: Plasmodium yoelii nigeriensis; experiment: Antimalarial activity against chloroquine-, mefloquine-, halofantrine-resistant Plasmodium yoelii nigeriensis blood stream schizonts infected in Swiss mouse assessed as disease cured mouse at 48 mg/kg, im administered once daily for 4 days measured on day 28; type: functional, organism-based; parameters: dose 48 mg/kg; conditions: not given

SMILES | Activity
C[C@H]1[C@@H](OCCCO)O[C@@H]2O[C@@]3(C)CC[C@H]4[C@H](C)CC[C@@H]1[C@@]24OO3 | Active
C[C@H]1[C@@H](OCCCCCCOC(=O)CCC(=O)O)O[C@@H]2O[C@@]3(C)CC[C@H]4[C@H](C)CC[C@@H]1[C@@]24OO3 | inactive
C[C@H]1[C@@H](OCCCOC(=O)CCC(=O)O)O[C@@H]2O[C@@]3(C)CC[C@H]4[C@H](C)CC[C@@H]1[C@@]24OO3 | inactive
C[C@H]1[C@@H](OCCOCCO)O[C@@H]2O[C@@]3(C)CC[C@H]4[C@H](C)CC[C@@H]1[C@@]24OO3 | Active

tested on: Plasmodium yoelii nigeriensis; experiment: Antimalarial activity against chloroquine-, mefloquine-, halofantrine-resistant Plasmodium yoelii nigeriensis blood stream schizonts infected in Swiss mouse assessed as disease cured mouse at 24 mg/kg, im administered once daily for 4 days measured on day 28; type: functional, organism-based; parameters: dose 24 mg/kg; conditions: not given

SMILES | Activity
C[C@H]1[C@@H](OCCCO)O[C@@H]2O[C@@]3(C)CC[C@H]4[C@H](C)CC[C@@H]1[C@@]24OO3 | Active
C[C@H]1[C@@H](OCCCCCCCCCCCCO)O[C@@H]2O[C@@]3(C)CC[C@H]4[C@H](C)CC[C@@H]1[C@@]24OO3 | inactive
C[C@H]1[C@@H](OCCOCCOCCOCCO)O[C@@H]2O[C@@]3(C)CC[C@H]4[C@H](C)CC[C@@H]1[C@@]24OO3 | inactive
C[C@H]1[C@@H](OCCOCCO)O[C@@H]2O[C@@]3(C)CC[C@H]4[C@H](C)CC[C@@H]1[C@@]24OO3 | Active

tested on: Plasmodium yoelii nigeriensis; experiment: Antimalarial activity against chloroquine-, mefloquine-, halofantrine-resistant Plasmodium yoelii nigeriensis blood stream schizonts infected in Swiss mouse assessed as disease cured mouse at 12 mg/kg, im administered once daily for 4 days measured on day 28; type: functional, organism-based; parameters: dose 12 mg/kg; conditions: not given

SMILES | Activity
C[C@H]1[C@@H](OCCOCCOCCOCCO)O[C@@H]2O[C@@]3(C)CC[C@H]4[C@H](C)CC[C@@H]1[C@@]24OO3 | inactive

tested on: Plasmodium yoelii nigeriensis; experiment: Antimalarial activity against chloroquine-, mefloquine-, halofantrine-resistant Plasmodium yoelii nigeriensis blood stream schizonts infected in Swiss mouse assessed as disease cured mouse at 6 mg/kg, im administered once daily for 4 days measured on day 28; type: functional, organism-based; parameters: dose 6 mg/kg; conditions: not given

SMILES | Activity
C[C@H]1[C@@H](OCCOCCO)O[C@@H]2O[C@@]3(C)CC[C@H]4[C@H](C)CC[C@@H]1[C@@]24OO3 | inactive

tested on: Plasmodium yoelii nigeriensis; experiment: Antimalarial activity against chloroquine-, mefloquine-, halofantrine-resistant Plasmodium yoelii nigeriensis blood stream schizonts infected in Swiss mouse assessed as disease cured mouse at 3 mg/kg, im administered once daily for 4 days measured on day 28; type: functional, organism-based; parameters: dose 3 mg/kg; conditions: not given

SMILES | Activity
C[C@H]1[C@@H](OCCCO)O[C@@H]2O[C@@]3(C)CC[C@H]4[C@H](C)CC[C@@H]1[C@@]24OO3 | inactive

tested on: not listed separately; experiment: Lipophilicity, log P of the compound; type: physicochemical; conditions: octanol/water

SMILES | logP
C[C@H]1[C@@H](OCCCO)O[C@@H]2O[C@@]3(C)CC[C@H]4[C@H](C)CC[C@@H]1[C@@]24OO3 | 3.1
C[C@H]1[C@@H](OCCCCCCOC(=O)CCC(=O)O)O[C@@H]2O[C@@]3(C)CC[C@H]4[C@H](C)CC[C@@H]1[C@@]24OO3 | 4.28
C[C@H]1[C@@H](OCCCOC(=O)CCC(=O)O)O[C@@H]2O[C@@]3(C)CC[C@H]4[C@H](C)CC[C@@H]1[C@@]24OO3 | 2.99
C[C@H]1[C@@H](OCCCCCCCCCCCCO)O[C@@H]2O[C@@]3(C)CC[C@H]4[C@H](C)CC[C@@H]1[C@@]24OO3 | 6.89
C[C@H]1[C@@H](OCCOCCOCCOCCO)O[C@@H]2O[C@@]3(C)CC[C@H]4[C@H](C)CC[C@@H]1[C@@]24OO3 | 2.52
C[C@H]1[C@@H](OCCOCCO)O[C@@H]2O[C@@]3(C)CC[C@H]4[C@H](C)CC[C@@H]1[C@@]24OO3 | 2.83
